pIC50: −log10 of the molar value.
Assay: Inhibition of Src-transfected 3T3 cell proliferation

Row | SMILES | pIC50
1 | COc1cnc(Cl)c(Nc2ncnc3cc(OCCN4CCN(C(C)=O)CC4)cc(OC(C)C)c23)n1 [1-(4-(2-(4-(3-chloro-6-methoxypyrazin-2-ylamino)-5-isopropoxyquinazolin-7-yloxy)ethyl)piperazin-1-yl)ethanone] | 7.15
2 | COc1ccc(Cl)c(Nc2ncnc3cc(OCCN4CCN(C(C)=O)CC4)cc(OC(C)C)c23)n1 [1-(4-(2-(4-(3-chloro-6-methoxypyridin-2-ylamino)-5-isopropoxyquinazolin-7-yloxy)ethyl)piperazin-1-yl)ethanone] | 7.22
3 | COc1ccc(Cl)c(Nc2ncnc3cc(OCCCN4CCN(C(C)=O)CC4)cc(OC(C)C)c23)n1 [1-(4-(3-(4-(3-chloro-6-methoxypyridin-2-ylamino)-5-isopropoxyquinazolin-7-yloxy)propyl)piperazin-1-yl)ethanone] | 7.70
4 | COc1ccc(Cl)c(Nc2ncnc3cc(OCCCN4CCOCC4)cc(OC(C)C)c23)c1 [N-(2-chloro-5-methoxyphenyl)-7-[3-(morpholin-4-yl)propoxy]-5-(propan-2-yloxy)quinazolin-4-amine] | 6.82
5 | COc1cnc(Cl)c(Nc2ncnc3cc(OCCCN4CCOCC4)cc(OC(C)C)c23)c1 [N-(2-chloro-5-methoxypyridin-3-yl)-5-isopropoxy-7-(3-morpholinopropoxy)quinazolin-4-amine] | 6.82
6 | COc1cnc(Cl)c(Nc2ncnc3cc(OCCCN4CCOCC4)cc(OC4CCOCC4)c23)c1 [N-(2-chloro-5-methoxypyridin-3-yl)-7-(3-morpholinopropoxy)-5-(tetrahydro-2H-pyran-4-yloxy)quinazolin-4-amine] | 6.85
7 | COc1ccc(Cl)c(Nc2ncnc3cc(OCCN4CCCC4)cc(OC(C)C)c23)n1 [N-(3-chloro-6-methoxypyridin-2-yl)-5-isopropoxy-7-(2-(pyrrolidin-1-yl)ethoxy)quinazolin-4-amine] | 6.92
8 | COc1ccc(Cl)c(Nc2ncnc3cc(OCCN4CCOCC4)cc(OC(C)C)c23)n1 [N-(3-chloro-6-methoxypyridin-2-yl)-5-isopropoxy-7-(2-morpholinoethoxy)quinazolin-4-amine] | 6.92
9 | COc1ccc(Cl)c(Nc2ncnc3cc(OCCCN4CCN(C)CC4)cc(OC(C)C)c23)n1 [N-(3-chloro-6-methoxypyridin-2-yl)-5-isopropoxy-7-(3-(4-methylpiperazin-1-yl)propoxy)quinazolin-4-amine] | 7.22
10 | COc1ccc(Cl)c(Nc2ncnc3cc(OCCCN4CCCC4)cc(OC(C)C)c23)n1 [N-(3-chloro-6-methoxypyridin-2-yl)-5-isopropoxy-7-(3-(pyrrolidin-1-yl)propoxy)quinazolin-4-amine] | 7.15
11 | COc1ccc(Cl)c(Nc2ncnc3cc(OCCCN4CCOCC4)cc(OC(C)C)c23)n1 [N-(3-chloro-6-methoxypyridin-2-yl)-5-isopropoxy-7-(3-morpholinopropoxy)quinazolin-4-amine] | 7.52
12 | COc1ccc(Cl)c(Nc2ncnc3cc(OCCCN4CCOCC4)cc(OC4CCOCC4)c23)n1 [N-(3-chloro-6-methoxypyridin-2-yl)-7-(3-morpholinopropoxy)-5-(tetrahydro-2H-pyran-4-yloxy)quinazolin-4-amine] | 7.15
13 | COc1cc(Nc2ncnc3cc(OCCCN4CCOCC4)cc(OC(C)C)c23)c(Cl)cn1 [N-(5-chloro-2-methoxypyridin-4-yl)-5-isopropoxy-7-(3-morpholinopropoxy)quinazolin-4-amine] | 6.46
